Tests used:
Assay type in all cases: biochemical
[1] = molecular target: T1, HDAC1 (Homo sapiens, UniProt Q13547); assay: HDAC Inhibition Screening Assay (FLUOR DE LYS Fluorimetric Drug Discovery Kit), HDAC1; conditions: for inhibition at 2 µM: 2 μM compound; for inhibition at 10 µM: 10 μM compound; for inhibition at 50 µM: 50 μM compound
T1 construct: purchased Enzo Life Sciences
In short: (§1)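 Recombinant HDAC1, HDAC2 or HDAC3 was incubated with an acetyl-lysine fluorogenic substrate, and a developer was then added to release the fluorophore. Compounds were tested at 2, 10 and 50 μM, with fluorescence read at 360 or 485 nm excitation and 460 or 530 nm emission. Activity was expressed as a percentage of basal control minus baseline.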

[2] = molecular target: T2, HDAC2 (Homo sapiens, UniProt Q92769); assay: HDAC Inhibition Screening Assay (FLUOR DE LYS Fluorimetric Drug Discovery Kit), HDAC2; conditions: for inhibition at 2 µM: 2 μM compound; for inhibition at 10 µM: 10 μM compound; for inhibition at 50 µM: 50 μM compound
T2 construct: purchased Enzo Life Sciences
T2 sequence (Q92769 whole entry): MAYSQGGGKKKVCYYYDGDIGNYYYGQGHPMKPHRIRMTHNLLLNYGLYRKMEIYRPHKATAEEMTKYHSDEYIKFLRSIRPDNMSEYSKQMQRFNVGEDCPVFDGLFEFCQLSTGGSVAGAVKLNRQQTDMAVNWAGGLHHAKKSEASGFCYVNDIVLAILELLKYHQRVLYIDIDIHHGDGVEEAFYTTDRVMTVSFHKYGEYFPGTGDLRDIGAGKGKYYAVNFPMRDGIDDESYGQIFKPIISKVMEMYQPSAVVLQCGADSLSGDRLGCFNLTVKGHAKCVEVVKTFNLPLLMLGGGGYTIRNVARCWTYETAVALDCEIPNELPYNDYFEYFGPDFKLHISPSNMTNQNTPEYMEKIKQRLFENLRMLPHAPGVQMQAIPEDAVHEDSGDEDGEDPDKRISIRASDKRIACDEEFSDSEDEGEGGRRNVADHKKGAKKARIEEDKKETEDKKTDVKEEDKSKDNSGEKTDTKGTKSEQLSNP
In short: as §1

[3] = molecular target: T3, HDAC3 (Homo sapiens, UniProt O15379); assay: HDAC Inhibition Screening Assay (FLUOR DE LYS Fluorimetric Drug Discovery Kit), HDAC3; conditions: for inhibition at 2 µM: 2 μM compound; for inhibition at 10 µM: 10 μM compound; for inhibition at 50 µM: 50 μM compound
T3 construct: purchased Enzo Life Sciences
T3 sequence (O15379 whole entry): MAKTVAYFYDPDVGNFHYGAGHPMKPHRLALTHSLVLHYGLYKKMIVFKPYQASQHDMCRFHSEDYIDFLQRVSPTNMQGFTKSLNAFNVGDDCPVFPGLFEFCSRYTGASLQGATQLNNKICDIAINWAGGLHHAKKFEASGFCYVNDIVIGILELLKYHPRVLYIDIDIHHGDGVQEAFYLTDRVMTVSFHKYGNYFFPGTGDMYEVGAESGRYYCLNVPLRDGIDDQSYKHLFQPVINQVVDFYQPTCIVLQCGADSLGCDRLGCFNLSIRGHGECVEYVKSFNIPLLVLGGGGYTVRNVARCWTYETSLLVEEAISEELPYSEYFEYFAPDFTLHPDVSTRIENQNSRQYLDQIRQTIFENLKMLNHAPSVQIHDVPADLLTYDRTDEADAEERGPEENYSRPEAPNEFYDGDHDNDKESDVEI
T3 sequence (O75376 395-489 partner limits assumed): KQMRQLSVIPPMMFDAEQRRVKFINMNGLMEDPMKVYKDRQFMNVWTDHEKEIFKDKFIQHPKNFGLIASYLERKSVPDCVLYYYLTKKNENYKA
In short: as §1

[4] = molecular target: T4, ATX (autotaxin) (Homo sapiens, UniProt Q13822); assay: Autotaxin Inhibition Screening Assay (choline release from LPC, LPC-CR); conditions: for inhibition at 4 µM: 4 μM compound; for inhibition at 20 µM: 20 μM compound; for inhibition at 50 µM: 50 μM compound
T4 construct: purchased Cayman 10803
In short: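 20 ng ATX incubated with 100 μM 14:0 LPC in 50 mM Tris pH 8.0, 0.01% Triton X-100, 50 mM CaCl2, with choline oxidase/HRP/2 mM HVA coupling; compounds at 4, 20 and 50 μM. HVA fluorescence (ex/em 320/450 nm) read every 60 s for 90 min; inhibition % from slopes corrected for blank versus vehicle.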

T1 sequence (Q13547 whole entry): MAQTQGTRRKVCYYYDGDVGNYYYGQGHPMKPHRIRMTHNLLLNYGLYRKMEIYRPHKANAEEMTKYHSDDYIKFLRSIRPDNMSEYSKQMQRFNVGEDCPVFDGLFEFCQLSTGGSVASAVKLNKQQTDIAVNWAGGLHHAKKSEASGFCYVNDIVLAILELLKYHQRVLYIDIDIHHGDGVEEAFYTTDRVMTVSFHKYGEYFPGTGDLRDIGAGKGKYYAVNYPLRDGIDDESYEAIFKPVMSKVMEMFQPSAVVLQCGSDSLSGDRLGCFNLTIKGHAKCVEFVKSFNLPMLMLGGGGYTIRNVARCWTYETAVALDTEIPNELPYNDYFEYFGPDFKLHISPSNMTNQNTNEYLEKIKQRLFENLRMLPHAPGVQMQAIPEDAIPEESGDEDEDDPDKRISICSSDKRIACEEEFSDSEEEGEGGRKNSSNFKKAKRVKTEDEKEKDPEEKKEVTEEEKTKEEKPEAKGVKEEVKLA

| SMILES | inhibition at 2 µM [1] | inhibition at 10 µM [1] | inhibition at 50 µM [1] | inhibition at 2 µM [2] | inhibition at 10 µM [2] | inhibition at 50 µM [2] | inhibition at 2 µM [3] | inhibition at 10 µM [3] | inhibition at 50 µM [3] | inhibition at 4 µM [4] | inhibition at 20 µM [4] | inhibition at 50 µM [4] |
| --- | --- | --- | --- | --- | --- | --- | --- | --- | --- | --- | --- | --- |
| O=C(/C=C/c1ccc2c(c1)CCC2NC(=O)OCc1cc(C(F)(F)F)cc(C(F)(F)F)c1)NO (stereo not drawn) [Compound 15, 3,5-bis(trifluoromethyl)benzyl (E)-(5-(3-(hydroxyamino)-3-oxoprop-1-en-1-yl)-2,3-dihydro-1H-inden-1-yl)carbamate] | < 50% | 50 to 80% | > 80% | < 50% | 50 to 80% | > 80% | < 50% | 50 to 80% | > 80% | < 50% | < 50% | < 50% |
| O=C(CCCCCCC(=O)NC1CCc2cc(Br)ccc21)NO (stereo not drawn) [Compound 40, N1-(5-bromo-2,3-dihydro-1H-inden-1-yl)-N8-hydroxyoctanediamide] | 50 to 80% | > 80% | > 80% | > 80% | > 80% | > 80% | > 80% | > 80% | > 80% | < 50% | < 50% | < 50% |
| COc1ccc(CCNC2CCc3cc(/C=C/C(=O)Nc4ccc(F)cc4N)ccc32)cc1 (stereo not drawn) [Compound 51, (E)-N-(2-amino-4-fluorophenyl)-3-(1-((4-methoxyphenethyl)amino)-2,3-dihydro-1H-inden-5-yl) acrylamide] | < 50% | 50 to 80% | > 80% | 50 to 80% | > 80% | > 80% | > 80% | > 80% | > 80% | < 50% | < 50% | < 50% |
| Nc1cc(F)ccc1NC(=O)CCCCC(=O)Nc1ccc2c(c1)CC/C(=C\c1cc(C(F)(F)F)cc(C(F)(F)F)c1)C2=O [Compound 13, (E)-N1-(2-amino-4-fluorophenyl)-N6-(6-(3,5-bis(trifluoromethyl)benzylidene)-5-oxo-5,6,7,8-tetrahydronaphthalen-2-yl)adipamide] | < 50% | < 50% | < 50% | < 50% | < 50% | < 50% | < 50% | < 50% | < 50% | 50 to 80% | 50 to 80% | 50 to 80% |
| O=C(/C=C/c1ccc2c(c1)CC/C(=C\c1cc(C(F)(F)F)cc(C(F)(F)F)c1)C2=O)NCCCCCC(=O)NO [Compound 8, 6-((E)-3-(6-((E)-3,5-bis(trifluoromethyl)benzylidene)-5-oxo-5,6,7,8-tetrahydronaphthalen-2-yl)acrylamido)-N-hydroxyhexanamide] | 50 to 80% | > 80% | > 80% | > 80% | > 80% | > 80% | < 50% | > 80% | > 80% | > 80% | > 80% | > 80% |
| O=C(/C=C/c1ccc2c(c1)CCCC2NC(=O)c1cc(C(F)(F)F)cc(C(F)(F)F)c1)NO (stereo not drawn) [Compound 24, (E)-N-(6-(3-(hydroxyamino)-3-oxoprop-1-en-1-yl)-1,2,3,4-tetrahydronaphthalen-1-yl)-3,5-bis(trifluoromethyl)benzamide] | < 50% | < 50% | 50 to 80% | < 50% | < 50% | 50 to 80% | < 50% | < 50% | < 50% | < 50% | < 50% | < 50% |

More lines, now with the values ahead:

| inhibition at 2 µM [1] | inhibition at 10 µM [1] | inhibition at 50 µM [1] | inhibition at 2 µM [2] | inhibition at 10 µM [2] | inhibition at 50 µM [2] | inhibition at 2 µM [3] | inhibition at 10 µM [3] | inhibition at 50 µM [3] | inhibition at 4 µM [4] | inhibition at 20 µM [4] | inhibition at 50 µM [4] | SMILES |
| --- | --- | --- | --- | --- | --- | --- | --- | --- | --- | --- | --- | --- |
| < 50% | < 50% | 50 to 80% | < 50% | < 50% | 50 to 80% | < 50% | < 50% | 50 to 80% | 50 to 80% | 50 to 80% | 50 to 80% | O=C(/C=C/c1ccc(CNC(=O)COc2ccc3c(c2)CC/C(=C\c2cc(C(F)(F)F)cc(C(F)(F)F)c2)C3=O)cc1)NO [Compound 75] |
| < 50% | < 50% | < 50% | < 50% | < 50% | < 50% | < 50% | < 50% | < 50% | < 50% | < 50% | < 50% | Nc1ccccc1NC(=O)c1ccc(COc2ccc3c(c2)CC/C(=C\c2cc(C(F)(F)F)cc(C(F)(F)F)c2)C3=O)cc1 [Compound 66, (E)-N-(2-aminophenyl)-4-(((6-(3,5-bis(trifluoromethyl)-benzylidene)-5-oxo-5,6,7,8-tetrahydronaphthalen-2-yl)oxy)methyl)benzamide] |
| < 50% | < 50% | 50 to 80% | < 50% | 50 to 80% | 50 to 80% | < 50% | < 50% | 50 to 80% | > 80% | > 80% | > 80% | O=C(NO)c1ccc(COc2ccc3c(c2)CC(Cc2cc(C(F)(F)F)cc(C(F)(F)F)c2)C3=O)cc1 (stereo not drawn) [Compound 77, 4-(((2-(3,5-bis(trifluoromethyl)benzyl)-1-oxo-2,3-dihydro-1H-inden-5-yl)oxy)methyl)-N-hydroxybenzamide] |
| < 50% | 50 to 80% | > 80% | 50 to 80% | > 80% | > 80% | > 80% | > 80% | > 80% | < 50% | < 50% | < 50% | Nc1cc(F)ccc1NC(=O)/C=C/c1ccc2c(c1)CCC2NCCc1c[nH]c2ccccc12 (stereo not drawn) [Compound 57, (E)-3-(1-((2-(1H-indol-3-yl)ethyl)amino)-2,3-dihydro-1H-inden-5-yl)-N-(2-amino-4-fluorophenyl)acrylamide] |
| < 50% | < 50% | < 50% | < 50% | < 50% | < 50% | < 50% | < 50% | < 50% | > 80% | > 80% | > 80% | Nc1cc(F)ccc1NC(=O)CCCCCNC(=O)c1ccc2c(c1)CC/C(=C\c1cc(C(F)(F)F)cc(C(F)(F)F)c1)C2=O [Compound 78] |
